Experimental data: US9745357B2, “Peptides used for treating cancers and, in particular, chronic lymphoid leukaemia” (Centre National de la Recherche Scientifique, priority 2009, dated 2017)
Entries after “also recorded” stand apart in the source; their conditions may differ. No end group written: not given here.

Experiments:
[1] = test system: cap-dependent translation (eIF4E-dependent); assay: Effect of the peptides on translation of capped luciferase mRNA in rabbit reticulocyte lysate; format: biochemical; conditions: 50 μM peptide, compared with DMSO = 100%, FIG. 2
Procedure: The peptides having the IRS motif and the sequences of 4EBPlike type (A1WT, BPSgWT, and BP2WT) or the mutant sequences of 4EPBlike type (A1YALA, BPSgYALA, BP2YALA) are incubated in rabbit reticulocyte lysate containing capped mRNAs encoding luciferase, an enzyme of which the activity can be easily assayed. The translational activity is directly proportional to the activity of the luciferase produced. The translational activity in the presence of peptide is compared with that obtained during the addition of an equivalent volume of DMSO, considered to be 100%.
The peptides were produced, purified by HPLC (purity>95%), and freeze-dried by Thermofisher Scientific. The peptides were then dissolved at 10 mM in DMSO.
The capped mRNAs encoding Renilla luciferase (Luc R) were produced by the T7 Message Machine Kit system (Ambion) from the pGb-Eg2-410Δ2-hxG-A65 plasmid linearized with EcoRV (Legagneux V, Omilli F, Osborne HB (1995) Substrate-specific regulation of RNA deadenylation in Xenopus embryo and activated egg extracts. RNA 1: 1001-1008).
The Luc R mRNAs were translated for one hour at 30° C. in rabbit reticulocyte lysate (Flexi Rabbit Reticulocyte Lysate System, Promega) in the presence of 50 μM of peptide. The luciferase activity was determined using the Renilla luciferase assay (Promega) on the Tristar LB941 luminometer (Berthold).
A capped mRNA (having a cap at the 5′ end) encoding luciferase, a protein which can be easily assayed by measuring its activity, was translated in the presence of these various peptides in rabbit reticulocyte lysate (FIG. 2). The luciferase activity measured is directly proportional to the amount of luciferase protein produced and therefore to the cap-dependent translational activity. Since the peptides are dissolved in DMSO, it was important to test the effect of DMSO on the translation. […] The translational activity in the presence of peptide was compared with that obtained when an equal volume of DMSO is added, considered to be equal to 100%.

[2] = test system: B lymphocytes from patients suffering from chronic lymphoid leukemia (CLL); conditions: for effect on percentage cell survival / cell effect CLL 40 (survival): 40 μM peptide; for effect on percentage cell survival: 4 H and 24 H, FIG. 3; for cell effect CLL 40 (survival): 4 hours of culture, cells not labeled with annexin or propidium iodide; for action of the peptide on cell survival, in words, cell type not given: Example 6 (CLL cells, control T lymphocytes, Jok cells)
Procedure: Peripheral blood B lymphocytes taken from patients suffering from CLL and then purified on a Ficoll cushion and placed in culture are incubated in the presence of […] of the peptides described for FIG. 2. The percentage cell survival after 4 hours (gray column) or 24 hours (white column) of culture corresponds to the percentage of cells labeled neither with annexin nor with propidium iodide, evaluated by flow cytometry.
The CLL B lymphocytes were obtained from peripheral blood of 18 different patients suffering from chronic lymphoid leukemia. […] The samples were taken in the Brest hospital center, in the hematology department. The blood samples were taken after informing the patients and obtaining their informed consent.
The lymphocytes, mononuclear cells, were isolated from the heparinized peripheral blood samples by Ficoll-Hypaque (LSM 1077 lymphocyte, euro-bio) centrifugation. The red blood cells were lyzed by incubation for 10 min in VersaLyse Lysing Solution (Beckman Coulter). The mononuclear cells are obtained after 2 washes in culture medium (RPMI1640, Gibco BRL).
(§1) The cells were cultured in a culture medium composed either of RPMI 1640 (B lymphocytes) or of DMEM (COS7, HCT116, HGT1, 293, HeLa) containing 10% of FCS (fetal calf serum, 1% of penicillin-streptomycin and 1% of glutamine, Gibco BRL). The cells are distributed in a 24-well plate and cultured at 37° C. in a humid atmosphere under 5% CO2.
(§2) 400 μl of cell suspension (1×10^6 cells/ml) per well were treated for 4 h or 24 h with various concentrations of peptides. The test for activity of the peptides in the presence of emetine (FIG. 6) was carried out by preincubating the cells with 100 μM of emetine for one hour before the addition of peptide.
(§3) After the cells have been washed with PBS, they were analyzed using the Annexin V-FITC IP system according to the supplier's recommendations (Beckman Coulter).
The cells taken from patients suffering from chronic lymphoid leukemia were purified on a Ficoll cushion. […] The cells were placed in culture in RPMI medium in the presence of 10% FCS (fetal calf serum). The peptides were added directly to the culture medium. These peptides comprise the IRS sequence (the amino acid sequence of which is RYIRS) which is known to allow the penetration of peptides into B lymphocytes in culture (Dong et al., 2005). […] The cells which survive the treatment are those which are labeled neither with annexin nor with propidium iodide.

[3] = test system: Jok cells (cell line derived from B lymphocytes); assay: Cell survival of Jok cells, annexin/propidium iodide flow cytometry; format: cell-based, human; conditions: for cell effect Jok 20 (survival): 20 μM peptide; for cell effect Jok 20 (survival) / cell effect Jok 40 (survival): 4 hours of culture, cells not labeled with annexin or propidium iodide; for cell effect Jok 40 (survival): 40 μM peptide
Procedure: The cells are treated as indicated for FIG. 7, with the CLL cells, control T lymphocytes and Jok lymphocytes, which are incubated with the A1 WT IRS peptide and derivatives thereof described in table 1. The Jok cells were incubated either with 20 μM (JOK 20) or with 40 μM (JOK 40) of each of the peptides. In the interests of simplifying the legend, the A1 WT IRS peptide is referred to as “WT”. Likewise, the derivatives thereof are referred to by the name of the mutations (A1 K3I IRS is referred to as “K3I”, for example).
as §1, §2, §3
The peptides were tested on B lymphocytes from patients suffering from chronic lymphoid leukemia, control T lymphocytes, or Jok cells (cell line derived from B lymphocytes). The experiment was repeated three times for each type of cell tested.

[4] = test system: control T lymphocytes (patients suffering from hemochromatosis); assay: Cell survival of control T lymphocytes, annexin/propidium iodide flow cytometry; format: cell-based, human; conditions: 40 μM peptide, 4 hours of culture, cells not labeled with annexin or propidium iodide
Procedure: FIG. 7: Activity of the A1WT peptide on cells of lymphocytic, lymphoid, gastric, colonic or renal origin The cells are prepared and placed in culture (see Materials and Methods) and then incubated for 4 H with the A1WT or A1 YALA peptide. The percentage cell survival corresponds to the percentage of cells labeled neither with annexin nor with propidium iodide, evaluated by flow cytometry. The names of the pathological conditions from which the patients from whom the samples are taken are suffering are indicated under the figure. The control T (L.T.) and B (L.B.) lymphocytes are taken from patients suffering from a disease not related to a lymphocytic pathological condition (hemochromatosis).
The control B lymphocytes and T lymphocytes originate from peripheral blood samples from patients suffering from hemochromatosis, provided by the CTS transfusion center in Brest. The B and T lymphocytes were isolated using the Rosett-Sep kit (Stemcell Technologies) according to the supplier's recommendations.
as §1, §2, §3

[5] = molecular target: T1, eIF4E (Mus musculus, UniProt P63073); assay: Test for interaction of YFP-fused peptide sequences with eIF4E (GST-eIF4E beads, affinity chromatography); format: binding; conditions: 35S Met-labeled YFP fusion produced in rabbit reticulocyte lysate; SDS-PAGE, autoradiography; FIG. 1
T1 construct: made in house; host or cells: E. coli BL21DE3 (Novagen), pGEX-4T-1 vector
T1 sequence (P63073 whole entry, the tested form may be a part): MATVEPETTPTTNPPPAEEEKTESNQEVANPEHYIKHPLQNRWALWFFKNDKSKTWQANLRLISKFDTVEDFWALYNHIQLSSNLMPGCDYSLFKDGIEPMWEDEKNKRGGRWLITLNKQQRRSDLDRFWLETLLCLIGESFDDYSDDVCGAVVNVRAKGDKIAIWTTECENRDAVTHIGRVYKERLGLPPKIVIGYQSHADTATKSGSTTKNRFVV
Source text: The eIF4E protein fused to glutathione-S-transferase (GST-eIF4E) or GST alone (GST), used as a control, are produced in bacteria, purified and immobilized on glutathione beads. The YFP, YFP-A1 WT and YFP-A1 YALA proteins were produced in rabbit reticulocyte lysate in the presence of 35S methionine and chromatographed on the GST-eIF4 or GST beads. The proteins retained on the beads are eluted and analyzed by SDS-PAGE followed by autoradiography.
The plasmids encoding the YFP protein-peptides were obtained by amplification of the reading frame of the YFP protein (enhanced yellow-green variant of the Aequorea victoria green fluorescent protein) from the pEYFP-C1 plasmid (Clontech). The 5′ primer used (sequence described below) made it possible to insert a T7 promoter (underlined sequence) upstream of the reading frame of YFP. […] The pGEX 4E plasmid was obtained by inserting the reading frame of the mouse eIF4E protein at the BamHI/EcoRI sites of the PGEX-4T-1 vector (Amersham pharmacia biotech). […] After washing, the proteins were eluted with SDS loading buffer, and analyzed, after an SDS-PAGE gel, by autoradiography (Typhoon Phospholmager, Amersham Pharmacia Biotech).
Biochemical validation of the peptides identified was then carried out by means of affinity chromatography approaches. […] The ability of these peptides to interact with eIF4E was then analyzed by affinity chromatography. […]

## RIIADRKFAADRRYIRS [BP2 YALA IRS, YALA mutant control of BP2 WT IRS]
[1]
  inhibition of translation (luciferase activity): does not cause any inhibition of the translation

## RIIYDRKFLLDRRYIRS [BP2 WT IRS, reference compound]
[2]
  effect on percentage cell survival: the percentage survival did not decrease
  cell effect CLL 40 (survival): − (−: survival >50%)
  action of the peptide on cell survival, in words, cell type not given: has no effect on cell survival
[2]; 40 μM, 4 hours, FIG. 9
  effect of the peptide on cell mortality, in words (relative to A1 WT IRS): has no effect
[1]
  inhibition of translation (luciferase activity): strong inhibition of the translation
[1]; listed as BP2
  inhibition of translation (luciferase activity): effectively inhibits eIF4E-dependent translation
[3]
  cell effect Jok 20 (survival): − (−: survival >50%)
  cell effect Jok 40 (survival): − (−: survival >50%)
[3]; concentration not given (20 or 40 μM), 4 hours, FIG. 9
  effect of the peptide on cell mortality, in words (relative to A1 WT IRS): has no effect

## RRKAGRDFAARFRYIRS [A1 YALA IRS, reference compound]
[4]
  cell effect LT 40 (survival): − (−: survival >50%)
[2]
  effect on percentage cell survival: has no effect
  cell effect CLL 40 (survival): − (−: survival >50%)
  action of the peptide on cell survival, in words, cell type not given: has no effect
[1]
  inhibition of translation (luciferase activity): does not inhibit the translation
[3]
  cell effect Jok 20 (survival): − (−: survival >50%)
  cell effect Jok 40 (survival): − (−: survival >50%)

## YFP-A1 WT: YFP, yellow fluorescent protein, fused to a peptide derived from the human Angel 1 protein, of sequence RRKYGRDFLLRF (SEQ ID No. 3) (also: fused to YFP)
[5]
  interaction with eIF4E (retention on GST-eIF4E beads): associates more strongly with eIF4E than the other peptides tested; also recorded: is retained on GST-eIF4E beads
